Data as given in patent US8815872B2, “Macrocyclics pyrimidines as aurora kinase inhibitors” (Merck Patent GmbH, priority 2008, dated 2014).
Like-named read-outs stand apart in the source and are kept apart here.

Tests used:
[1] = snar bond
Aurora B = Aurora B (Homo sapiens, UniProt Q96GD4); test: Aurora B enzyme assay (Caliper); assay type: biochemical
Description: (§1) The Aurora and other kinase assays described here were performed on two Caliper Life Sciences systems, the LC3000 and the Desktop Profiler. These provide data on enzyme activity via measurement of the relative amounts of phosphorylated or unphosphorylated fluorescently labelled substrate peptide at the end of an enzymatic reaction. These different states of peptide are resolved by applying a potential difference across the sample. The presence of a charged phosphate group on the product (as opposed to the substrate) causes a different peptide mobility between the two peptides. This is visualized by excitation of a fluorescent label on the substrate and product peptides and represented as peaks within the analysis software.

Aurora A = biological target: T1, Aurora A (Homo sapiens, UniProt O14965); test: Aurora A enzyme assay (Caliper LC3000 mobility shift); assay type: biochemical
T1 construct: N-terminal GST fusion with full length Aurora A (1-403 amino acids); purchased Carna Biosciences 05-101
T1 sequence (O14965 1-403): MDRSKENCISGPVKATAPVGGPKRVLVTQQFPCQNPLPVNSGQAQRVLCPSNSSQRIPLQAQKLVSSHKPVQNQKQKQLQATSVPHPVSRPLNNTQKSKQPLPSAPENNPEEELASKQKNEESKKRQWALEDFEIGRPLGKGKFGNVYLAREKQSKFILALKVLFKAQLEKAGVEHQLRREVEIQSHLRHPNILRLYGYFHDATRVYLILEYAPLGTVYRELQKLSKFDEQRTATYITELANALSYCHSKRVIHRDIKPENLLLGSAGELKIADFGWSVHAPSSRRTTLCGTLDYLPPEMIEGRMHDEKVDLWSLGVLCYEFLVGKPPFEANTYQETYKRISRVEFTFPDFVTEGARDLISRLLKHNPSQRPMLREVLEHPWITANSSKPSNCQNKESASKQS
Description: as §1
For example, in order to measure inhibitor activity of Aurora A inhibitors in the Caliper Life Sciences LC3000, a TTP Mosquito liquid handling instrument was used to place […] of an appropriate concentration of inhibitor in 100% DMSO (for a dose response curve calculation) into each well of a 384-well plate. To this reaction components were added to a final volume of 25 μl: • 0.067 ng/μl GST-Aurora A (Carna Biosciences 05-101. N-terminal GST fusion with full length Aurora A (1-403 amino acids), accession number NP_940835.1). • 15 μM ATP (Fluka, 02055) • 1 mM DTT (Sigma, D0632) • 1 mM MgC12 (Sigma, M1028) • 1 μM substrate peptide (sequence FITC-LRRASLG-(CONH2), synthesized by Tufts Peptide Synthesis service. • 100 mM HEPES pH 7.5 (Calbiochem, 391338) • 0.015% Brij-35 (Sigma, B4184)
The reaction was incubated for 90 min at 25° C., and then stopped by the addition of 70 μl of Stop buffer (100 mM HEPES pH 7.5, 0.015% Brij-35, 10 mM EDTA (Sigma, E7889)).
The plate was read on a Caliper LC 3000 in an Off-Chip mobility shift assay format, using the following parameters for a 12-sipper chip: screening pressure −1.8 psi, upstream voltage −2700, downstream voltage −1000. These conditions cause unphosphorylated substrate and phosphorylated product peptide to resolve as separate peaks allowing direct measurement of percentage of conversion of substrate to product. The percent conversion was plotted against concentration of inhibitor to produce a sigmoidal dose response curve, from which an IC50 was calculated using XLFit for Microsoft Excel.

MiaPaca2 = test: Cellular activity MiaPaca2; assay type: cell-based; settings: Homo sapiens, MIA PaCa-2
Description: (§2) The susceptibility of a particular cell to treatment with the compounds according to the invention was determined by in vitro tests. Typically, a culture of the cell was combined with a compound according to the invention at various concentrations for a period of time that was sufficient to allow the active agents to induce cell death or to inhibit migration, usually between about one hour and one week. In vitro testing was carried out using cultivated cells from a biopsy sample. The viable cells remaining after the treatment then were counted.

[2] = biological target: kinases (not incl. Aurora); test: Kinase inhibition profile (not incl. Aurora); assay type: biochemical; settings: at 1 μM; hit means >79% inhibition
Description: as §1
The Desktop Profiler utilizes the same principal as the LC 3000 for calculating percentage conversion of a substrate to product. Caliper Life Sciences provided proprietary flash frozen pre-made 384 well plates containing selected kinases. Each column in the 384 well plate contained a particular selected kinase. A second plate, the ‘substrate plate’ contained a mix of fluorescently labeled peptide substrate and ATP. These were arranged in columns so that transfer for substrate plate to enzyme plate provided the correct enzyme with the correct substrate/ATP concentration.
Compounds were added to a thawed enzyme plate in the desired format, in single concentrations. Reactions were initiated by transfer of the ubstrate/ATP mix from the substrate plate. The enzyme plate was incubated for 90 mins at 25 °C. The reaction was stopped by addition of […] of Stop Buffer (100 mM HEPES pH 7.5, 0.015% Brij-35, 10 mM EDTA (Sigma, E7889)).
Plates were read in a manner identical to that of the LC3000, and the ratio between substrate and product peaks provided the activity of the enzyme in that well. This was best represented by a plate heat map which colors each well by percent inhibition as compared to positive and negative controls (no inhibitors and no ATP respectively).

A549 = test: Cellular activity A549; assay type: cell-based; settings: Homo sapiens
Description: as §2

Chain of Aurora B (Q96GD4 whole entry): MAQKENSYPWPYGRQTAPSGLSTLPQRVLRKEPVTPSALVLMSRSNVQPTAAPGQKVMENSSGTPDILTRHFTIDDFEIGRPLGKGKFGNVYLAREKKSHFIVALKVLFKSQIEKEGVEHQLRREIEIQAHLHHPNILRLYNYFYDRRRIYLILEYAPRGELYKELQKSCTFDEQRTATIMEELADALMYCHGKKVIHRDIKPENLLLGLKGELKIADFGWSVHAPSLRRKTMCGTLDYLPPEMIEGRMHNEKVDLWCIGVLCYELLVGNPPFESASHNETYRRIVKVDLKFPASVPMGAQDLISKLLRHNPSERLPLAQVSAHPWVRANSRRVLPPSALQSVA

Row | IC50 (Aurora B) | IC50 (Aurora A) | SMILES | further results
1 | 1 to 100 nM | 1000 to 6250 nM | CN1Cc2cccc(c2)Nc2ncc(F)c(n2)N[C@@H]2[C@@H]3C[C@@H](C[C@H]3C1)[C@@H]2C(N)=O | ring closure, yield of all isomers ([1]; from CN(Cc1cccc(N)c1)C[C@@H]1C[C@@H]2C[C@H]1[C@@H](Nc1nc(Cl)ncc1F)[C@H]2C(N)=O): 5.5%
2 | 1 to 100 nM | 101 to 1000 nM | CN1CCN(c2ccc3cc2CNC[C@@H]2C[C@@H]4C[C@H]2[C@@H](Nc2nc(ncc2F)N3)[C@H]4C(N)=O)CC1 | ring closure, yield of all isomers ([1]; from CN1CCN(c2ccc(N)cc2CNC[C@@H]2C[C@@H]3C[C@H]2[C@@H](Nc2nc(Cl)ncc2F)[C@H]3C(N)=O)CC1, HCl): 24.9%
3 | 101 to 1000 nM | 101 to 1000 nM | NC(=O)[C@H]1[C@@H]2CC3CNC(=O)Nc4cccc(c4)Nc4ncc(F)c(n4)N[C@@H]1[C@@H]3C2 (stereo partly drawn) | IC50 (MiaPaca2): 1000 to 6250 nM; Kinase Inhibition Profile (not incl. Aurora) # kinases hit/# kinases tested [2]: 1/76 at 1 μM; ring closure, yield of all isomers ([1]; from NC(=O)[C@H]1[C@@H]2CC(CNC(=O)Nc3cccc(N)c3)[C@@H](C2)[C@H]1Nc1nc(Cl)ncc1F): 15.1%; IC50 (A549): > 6250 nM
4 | 101 to 1000 nM | 1 to 100 nM | NC(=O)[C@H]1[C@@H]2C[C@H]3CNS(=O)(=O)Cc4cccc(c4)Nc4ncc(F)c(n4)N[C@@H]1[C@@H]3C2 | IC50 (MiaPaca2): 1000 to 6250 nM; ring closure, yield of all isomers ([1]; from NC(=O)[C@H]1[C@@H]2C[C@@H](CNS(=O)(=O)Cc3cccc(N)c3)[C@@H](C2)[C@H]1Nc1nc(Cl)ncc1F): 6.3%; IC50 (A549): 1000 to 6250 nM
5 | 1000 to 6250 nM | 1000 to 6250 nM | NC(=O)[C@H]1[C@@H]2C[C@H]3CNC(=O)Cn4cnc(c4)Nc4ncc(F)c(n4)N[C@@H]1[C@@H]3C2 | ring closure, yield of all isomers ([1]; from NC(=O)[C@H]1[C@@H]2C[C@@H](CNC(=O)Cn3cnc([N+](=O)[O-])c3)[C@@H](C2)[C@H]1Nc1nc(Cl)ncc1F, 2 steps): 46.6%
6 | – | 101 to 1000 nM | NC(=O)[C@H]1[C@@H]2C[C@H]3CNCC(O)c4cccc(c4)Nc4ncc(F)c(n4)N[C@@H]1[C@@H]3C2 (stereo partly drawn) | ring closure, yield of all isomers ([1]; from NC(=O)[C@H]1[C@@H]2C[C@@H](CNCC(O)c3cccc(N)c3)[C@@H](C2)[C@H]1Nc1nc(Cl)ncc1F, HCl): 43.9%
7 | – | 1 to 100 nM | CN1CCN(c2cc3cc(c2)S(=O)(=O)NC[C@@H]2C[C@@H]4C[C@H]2[C@@H](Nc2nc(ncc2F)N3)[C@H]4C(N)=O)CC1 | ring closure, yield of all isomers ([1]; from CN1CCN(c2cc(N)cc(S(=O)(=O)NC[C@@H]3C[C@@H]4C[C@H]3[C@@H](Nc3nc(Cl)ncc3F)[C@H]4C(N)=O)c2)CC1, HCl): 6.8%
8 | 101 to 1000 nM | 101 to 1000 nM | NC(=O)[C@H]1[C@@H]2C[C@H]3CNCC(=O)Nc4cccc(c4)Nc4ncc(F)c(n4)N[C@@H]1[C@@H]3C2 | ring closure, yield of all isomers ([1]; from NC(=O)[C@H]1[C@@H]2C[C@@H](CNCC(=O)Nc3cccc(N)c3)[C@@H](C2)[C@H]1Nc1nc(Cl)ncc1F): 44%
9 | 1 to 100 nM | 1 to 100 nM | NC(=O)[C@H]1[C@H]2C[C@H]3[C@H]1Nc1nc(ncc1F)Nc1cccc(c1)CC(=O)N[C@@H]3C2 | ring closure, yield of all isomers ([1]; from NC(=O)[C@H]1[C@H]2C[C@@H]([C@H]1Nc1nc(Cl)ncc1F)[C@H](NC(=O)Cc1cccc(N)c1)C2): 8.1%
10 | 1 to 100 nM | 1 to 100 nM | CN1CCN(c2ccc3cc2CC(=O)N[C@@H]2C[C@@H]4C[C@H]2[C@@H](Nc2nc(ncc2F)N3)[C@H]4C(N)=O)CC1 | ring closure, yield of all isomers ([1]; from CN1CCN(c2ccc(N)cc2CC(=O)N[C@@H]2C[C@@H]3C[C@H]2[C@@H](Nc2nc(Cl)ncc2F)[C@H]3C(N)=O)CC1): 5.3%
